{"source": "patent US20110251189A1", "about": "“HYPOXIA TARGETED COMPOUNDS FOR CANCER DIAGNOSIS AND THERAPY” (priority 2008, published 2011)", "key": {"[1]": {"test_system": "HepG2 cells", "test": "Survival (MTT) cytotoxicity assay in HepG2 cells under normoxic or hypoxic conditions", "assay_type": "cell-based", "conditions": "for IC50: Homo sapiens, MTT assay; for toxicity in hypoxic versus normoxic exposure: transient exposure to hypoxic conditions", "experimental": "Cell Culture and Cytotoxicity Assays. HepG2 cells (passage 2 from frozen stock) were cultured in RPMI 1640 containing 10% FBS. The tests were performed in 96-well plates with stock cells split equally into duplicate plates—one for normoxic and the other for hypoxic conditions. The drug(s) or vehicle (0.1% DMSO) was applied to the cells in log-exponential growth phase under normoxic conditions (5% CO2; 37 C) for 48 hours or under normoxic conditions (22 hr) followed by 2 hr hypoxic conditions (1% O2, 5% CO2, 94% N2 at 37° C.) then followed by reoxygenation for 24 hrs. For the hypoxia experiments, a glove chamber with two-way pressure value and one-way N2 inflow was used. Hypoxia conditions were met using methylene blue dye indicator (i.e. 0.015% methylene blue, 6% dextrose, 6 mM NaOH) which correlated with the O2 pressure in the glove box when measured continuously with a Clark-type electrode.^13\nAt 48 hrs, a tetrazolium component (MTT) assay (Promega, Madison, Wis.; Cell Titer 96 Non-Radioactive Cell Proliferation Assay) was performed following an established protocol in the laboratory. Since these assays depend on mitochondrial function, which may be affected by the state of oxygenation, clonogenic assays to verify survival function were also performed. It is important to note that the data presented for the MTT assay normalizes the OD595 for the drug treated wells (minus background) to its own vehicle treated well(s) under either normoxic or hypoxic conditions. These values are then plotted as a percentage (×100%) surviving 48 hrs of drug(s) or vehicle treatment under the said condition. These analyses have also been performed previously for other hypoxia studies.^14,15"}, "[2]": {"test_system": "HepG2 cells", "test": "HepG2 clonogenic assay (colony count) under normoxic or hypoxic conditions", "assay_type": "cell-based", "conditions": "for cells dead / colonies dead: hypoxic conditions; for cells dead / cells dead compared with controls: 50 μM; for cells dead: p<0.00001 vs control treated hypoxic conditions; for colonies dead / colonies alive relative to controls: ~10 μM; for colonies dead: p<0.001 vs control treated cells; for cells dead compared with controls / colonies alive relative to controls: normoxic cells; for colonies alive relative to controls: FIG. 5", "experimental": "In the HepG2 clonogenic assays, 3.5×10^3 per well were seeded in 6-well plates using RPMI1640 and 10% FBS. After 24 hrs of growth at 37° C., the cells were exposed to vehicle or drug(s). After 10 days incubation with drug(s) or control, the wells were washed with PBS twice, then fixed in 10% acetic acid for 10 min, then stained with crystal violet for 10 min, and finally rinsed with distilled water at room temperature. The colonies (>50 μm likely representing >50 cells) were then visually counted in randomly chosen 1-mm×1-mm grid repeated three times. Statistical analyses of the mean number of colonies were performed by using the Mann-Whitney t test, with significant differences established as P<0.05 as previously published by the laboratory.^16 For the hypoxia conditions, after 24 hr growth in normoxic conditions as above, the vehicle or drug(s) treated cells were exposed to hypoxic environment (1% O2, 5% CO2, 94% N2 at 37° C.) for 5 hrs, followed by re-oxygenation (5% CO2; 37° C.) for the remaining 10 days."}, "[3]": {"conditions": "22 hr normoxia, 2 hr hypoxia (1% O2), reoxygenation 24 hrs, read-out: IC50 (hypoxia)"}, "[4]": {"conditions": "normoxic conditions 48 hours, read-out: IC50 (normoxia)"}}, "note": "Like-named read-outs stand apart in the source and are kept apart here.", "data": [{"smiles": "c1ccc(C2=Nc3ccccc3OC2)cc1", "note": "[Compound 3]", "values": [{"measurement": "IC50", "setting": "[1]; [3]", "result": "10.8 ± 1.4", "unit": "µM"}, {"measurement": "IC50", "setting": "[1]; [4]", "result": "87 ± 1.3", "unit": "µM"}, {"measurement": "toxicity in hypoxic versus normoxic exposure", "setting": "[1]", "result": "significantly more toxic to hypoxic exposure than to normoxic exposure"}, {"measurement": "cells dead", "setting": "[2]", "result": "~98", "unit": "%"}, {"measurement": "colonies dead", "setting": "[2]", "result": "~71", "unit": "%"}, {"measurement": "cells dead compared with controls", "setting": "[2]", "result": "~12", "unit": "%"}, {"measurement": "colonies alive relative to controls", "setting": "[2]", "result": "~105", "unit": "%"}]}, {"smiles": "Clc1ccc2c(c1)N=C(c1ccccc1)CO2", "note": "[Compound 4]", "values": [{"measurement": "IC50", "setting": "[1]; [3]", "result": "30 ± 2.4", "unit": "µM"}, {"measurement": "IC50", "setting": "[1]; [4]", "result": "78 ± 1.2", "unit": "µM"}]}, {"smiles": "O=[N+]([O-])c1ccc2c(c1)N=C(c1ccc(Cl)cc1)CO2", "note": "[Compound 7]", "values": [{"measurement": "IC50", "setting": "[1]; [3]", "result": "20 ± 1.2", "unit": "µM"}, {"measurement": "IC50", "setting": "[1]; [4]", "result": "78 ± 1.4", "unit": "µM"}, {"measurement": "toxicity in hypoxic versus normoxic exposure", "setting": "[1]", "result": "significantly more toxic to hypoxic exposure than to normoxic exposure"}, {"measurement": "cells dead", "setting": "[2]", "result": "~83", "unit": "%"}, {"measurement": "colonies dead", "setting": "[2]", "result": "~28", "unit": "%"}, {"measurement": "cells dead compared with controls", "setting": "[2]", "result": "~11", "unit": "%"}, {"measurement": "colonies alive relative to controls", "setting": "[2]", "result": "~110", "unit": "%"}]}, {"smiles": "Clc1ccc(C2=Nc3ccc(Cl)cc3OC2)cc1", "note": "[Compound B47.2]", "values": [{"measurement": "IC50", "setting": "[1]; [3]", "result": "28 ± 1.6", "unit": "µM"}, {"measurement": "IC50", "setting": "[1]; [4]", "result": "88 ± 2.4", "unit": "µM"}]}, {"smiles": "Cc1ccc2c(c1)N=C(c1ccc(Cl)cc1)CO2", "note": "[Compound B47.4]", "values": [{"measurement": "IC50", "setting": "[1]; [3]", "result": "87 ± 1.8", "unit": "µM"}, {"measurement": "IC50", "setting": "[1]; [4]", "result": "> 600", "unit": "µM"}]}]}
